Measured values published in patent US10881644B2, “Treatment of asthma and chronic obstructive pulmonary disease with anti-proliferate and anti-inflammatory drugs” (Lutonix, Inc., priority 2006, dated 2021).

Tests used:
[1] = system: albumin; settings: cited from earlier work
[2] = 1 minute after intravenous injection in rats; cited from earlier work
[3] = Stability under ethylene oxide sterilization, heating and aging with paclitaxel; assay type: physicochemical; settings: formulated with paclitaxel
[4] = Drug coated PTCA balloon catheter in pig blood vessels: residual drug on balloon and drug content in tissue by tissue extraction and HPLC; settings: after only 0.2-2 minutes of deployment; substance used as additive in the drug coating
[5] = with the addition of BSA; cited from earlier work

Compound: CO[C@H]1C[C@@H]2CC[C@@H](C)[C@@](O)(O2)C(=O)C(=O)N2CCCC[C@H]2C(=O)O[C@H]([C@H](C)C[C@@H]2CC[C@@H](O)[C@H](OC)C2)CC(=O)[C@H](C)/C=C(\C)[C@@H](O)[C@@H](OC)C(=O)[C@H](C)C[C@H](C)/C=C/C=C/C=C/1C [rapamycin]
- protein bound [1]: 92%

Compound: I-iothalamate
- share of myocardial content found in the extravascular space [2]: approximately 80%

Compound: O=C1O[C@H]([C@@H](O)CO)C(O)=C1O [ascorbic acid]
- stability under ethylene oxide sterilization, heating, and aging process [3]: not stable

Compound: O=C1O[C@H](CO)[C@@H](O)[C@H](O)[C@H]1O [gluconolactone]
- drug absorption by tissue / drug levels in tissue [4]: unexpectedly high

Compound: O=C(O)c1ccccc1 [benzoic acid]
- stability under ethylene oxide sterilization, heating, and aging process [3]: not stable

Compound: O=C1O[C@H](CO)[C@@H](O)[C@H]1O [ribonic acid lactone]
- drug absorption by tissue / drug levels in tissue [4]: unexpectedly high

Compound: O=C(O)c1cc(O)ccc1O [gentisic acid]
- stability under ethylene oxide sterilization, heating, and aging process [3]: not stable

Compound: CC(=O)O[C@H]1C(=O)[C@@]2(C)[C@H]([C@H](OC(=O)c3ccccc3)[C@]3(O)C[C@H](OC(=O)[C@H](O)[C@@H](NC(=O)c4ccccc4)c4ccccc4)C(C)=C1C3(C)C)[C@]1(OC(C)=O)CO[C@@H]1C[C@@H]2O [paclitaxel]
- increase of solubility in PBS [5]: over 20 fold

Compound: OCCNCCO [diethanolamine]
- stability under ethylene oxide sterilization, heating, and aging process [3]: not stable
